Data as given in paper PMC6019134, “1,2,6-Thiadiazinones as Novel Narrow Spectrum Calcium/Calmodulin-Dependent Protein Kinase Kinase 2 (CaMKK2) Inhibitors” (Molecules : A Journal of Synthetic Chemistry and Natural …, 2018).

Experiments:
Experiment in all cases: DSF thermal shift, kinase panel
Format in all cases: binding
Conditions in all cases: 10 μM compound
[1] = molecular target: T1, MAP2K7A (Homo sapiens, UniProt O14733)
T1 construct: purchased in-house (home-made panel, SGC-style construct names)
T1 sequence (O14733 1-419): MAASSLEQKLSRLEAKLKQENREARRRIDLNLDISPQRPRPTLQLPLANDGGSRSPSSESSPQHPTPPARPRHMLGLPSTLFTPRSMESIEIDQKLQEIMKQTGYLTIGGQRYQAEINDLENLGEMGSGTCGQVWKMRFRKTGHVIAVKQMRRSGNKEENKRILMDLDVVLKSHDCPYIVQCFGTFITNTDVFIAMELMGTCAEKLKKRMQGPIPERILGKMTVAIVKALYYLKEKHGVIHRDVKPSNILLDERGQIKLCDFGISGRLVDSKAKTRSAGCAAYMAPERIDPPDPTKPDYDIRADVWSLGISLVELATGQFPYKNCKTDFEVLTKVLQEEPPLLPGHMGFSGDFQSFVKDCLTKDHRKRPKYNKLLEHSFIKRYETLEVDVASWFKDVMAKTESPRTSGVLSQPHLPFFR
Experimental: (§1) The corresponding dianilino-TDZs (1–5) were tested on a panel of 46 protein kinases representing the major kinome branches at a concentration of 10 μM using a Differential Scanning Fluorimetry (DSF). Only analogues 1–3 induced a significant (>2 °C) thermal shift when incubated with a subset of the proteins (Table 1).
(§2) Kinase selectivity assay—A home-made kinase panel was generated for the following enzymes: AAK1, BMP2K, BMX, BRAF, CAMK1D, CAMK1G, CAMKK1, CAMKK2B, CDC42BPA, CDK2, CDKL1, CHEK2, CLK1, CSNK1G1, CSNK1G3, CSNK2A1, DYRK1A, DYRK2A, EPHA2, GAK, GSG2, MAPK1, MAP2K7, MAPK14B, MAPK3, PHKG2, PIM1, PLK1, PKMYT1, PRPF4B, RPS6KA1A, RPS6KA5A, RPS6KA6A, SLK, SRPK1, SRPK2, STK3, STK6, STK10, STK17A, STK24, STK38L, TRIB2, TTK, VRK1 and VRK2. Proteins were produced in E. coli, purified in a Ni-chelate column, followed by overnight digestion using TEV protease (made in house with an N-terminal 6xHis tag) and dialysis to remove imidazole. To clear samples of uncleaved proteins and the TEV protease, samples were loaded on new Ni-chelate columns. The flow through was collected, concentrated and loaded to a HiLoad Superdex 200 16/600 column (GE Healthcare, Chicago, IL, USA) for final polishing and buffer exchange.
(§3) Starting from 100 µM protein stocks, our kinase panel enzymes were diluted to 1 µM in buffer 100 mM K2HPO4 pH 7.5 containing 150 mM NaCl, 10% glycerol and 5X dye (Applied Biosystems catalogue 4461806). The protein/dye mixture was transferred to a 384-well PCR microplate having 20 µL per well. Compounds in DMSO at 10 mM concentration were added in 20 nL volume, using a liquid handling device setup with a pin head, to make 10 µM compound concentration in the assay plate.
(§4) Protein thermal shift data was measured in a qPCR instrument (Applied Biosystems QuantStudio 6) programmed to equilibrate the plate at 25 °C for 5 min followed by ramping the temperature to 95 °C at a rate of 0.05 °C/s. Data was processed using Protein Thermal shift software (Applied Biosystems) by fitting experimental curves to a Boltzmann function to calculate differential thermal shifts (dTm) referenced to protein/dye in 0.2% DMSO.

[2] = molecular target: T2, CAMK1D (Homo sapiens, UniProt Q8IU85)
T2 construct: purchased in-house (home-made panel, SGC-style construct names)
Experimental: as §1, §2, §3, §4

[3] = molecular target: T3, VRK2A (Homo sapiens, UniProt Q86Y07)
T3 construct: TEV-cleavable (cleaved yes); made in house; host or cells: E. coli
Experimental: as §1, §2, §3, §4

[4] = molecular target: T4, SRPK2A (Homo sapiens, UniProt P78362)
T4 construct: purchased in-house (home-made panel, SGC-style construct names)
Experimental: as §1, §2, §3, §4

[5] = molecular target: T5, STK6A (Homo sapiens, UniProt O14965)
T5 construct: TEV-cleavable (cleaved yes); made in house; host or cells: E. coli
T5 sequence (O14965 1-403): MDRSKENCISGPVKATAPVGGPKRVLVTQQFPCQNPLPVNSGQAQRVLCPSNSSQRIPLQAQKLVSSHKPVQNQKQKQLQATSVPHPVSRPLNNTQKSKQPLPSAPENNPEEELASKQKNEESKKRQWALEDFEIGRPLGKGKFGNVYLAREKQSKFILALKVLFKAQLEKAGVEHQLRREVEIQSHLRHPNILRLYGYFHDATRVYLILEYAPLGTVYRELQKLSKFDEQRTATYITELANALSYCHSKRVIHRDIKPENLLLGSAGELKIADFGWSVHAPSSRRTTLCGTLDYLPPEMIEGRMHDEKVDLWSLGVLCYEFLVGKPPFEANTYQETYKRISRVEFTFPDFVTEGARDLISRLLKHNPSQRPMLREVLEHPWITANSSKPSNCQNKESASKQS
Experimental: as §1, §2, §3, §4

[6] = molecular target: T6, MAPK1A (Homo sapiens, UniProt P28482)
T6 construct: purchased in-house (home-made panel, SGC-style construct names)
Experimental: as §1, §2, §3, §4

[7] = molecular target: T7, PRPF4BA (Homo sapiens, UniProt Q13523)
T7 construct: purchased in-house (home-made panel, SGC-style construct names)
Experimental: as §1, §2, §3, §4

[8] = molecular target: T8, CSNK1G3 (Homo sapiens, UniProt Q9Y6M4)
T8 construct: purchased in-house (home-made panel, SGC-style construct names)
Experimental: as §1, §2, §3, §4

[9] = molecular target: T9, PIM1A (Homo sapiens, UniProt P11309)
T9 construct: purchased in-house (home-made panel, SGC-style construct names)
Experimental: as §1, §2, §3, §4

[10] = molecular target: T10, STK24A (Homo sapiens, UniProt Q9Y6E0)
T10 construct: TEV-cleavable (cleaved yes); made in house; host or cells: E. coli
Experimental: as §1, §2, §3, §4

[11] = molecular target: T11, RPS6KA5A (Homo sapiens, UniProt O75582)
T11 construct: purchased in-house (home-made panel, SGC-style construct names)
Experimental: as §1, §2, §3, §4

[12] = molecular target: T12, RPS6KA6A (Homo sapiens, UniProt Q9UK32)
T12 construct: purchased in-house (home-made panel, SGC-style construct names)
Experimental: as §1, §2, §3, §4

[13] = molecular target: T13, AAK1 (Homo sapiens, UniProt Q2M2I8)
T13 construct: purchased in-house (home-made panel, SGC-style construct names)
Experimental: as §1, §2, §3, §4

T7 sequence (Q13523 whole entry): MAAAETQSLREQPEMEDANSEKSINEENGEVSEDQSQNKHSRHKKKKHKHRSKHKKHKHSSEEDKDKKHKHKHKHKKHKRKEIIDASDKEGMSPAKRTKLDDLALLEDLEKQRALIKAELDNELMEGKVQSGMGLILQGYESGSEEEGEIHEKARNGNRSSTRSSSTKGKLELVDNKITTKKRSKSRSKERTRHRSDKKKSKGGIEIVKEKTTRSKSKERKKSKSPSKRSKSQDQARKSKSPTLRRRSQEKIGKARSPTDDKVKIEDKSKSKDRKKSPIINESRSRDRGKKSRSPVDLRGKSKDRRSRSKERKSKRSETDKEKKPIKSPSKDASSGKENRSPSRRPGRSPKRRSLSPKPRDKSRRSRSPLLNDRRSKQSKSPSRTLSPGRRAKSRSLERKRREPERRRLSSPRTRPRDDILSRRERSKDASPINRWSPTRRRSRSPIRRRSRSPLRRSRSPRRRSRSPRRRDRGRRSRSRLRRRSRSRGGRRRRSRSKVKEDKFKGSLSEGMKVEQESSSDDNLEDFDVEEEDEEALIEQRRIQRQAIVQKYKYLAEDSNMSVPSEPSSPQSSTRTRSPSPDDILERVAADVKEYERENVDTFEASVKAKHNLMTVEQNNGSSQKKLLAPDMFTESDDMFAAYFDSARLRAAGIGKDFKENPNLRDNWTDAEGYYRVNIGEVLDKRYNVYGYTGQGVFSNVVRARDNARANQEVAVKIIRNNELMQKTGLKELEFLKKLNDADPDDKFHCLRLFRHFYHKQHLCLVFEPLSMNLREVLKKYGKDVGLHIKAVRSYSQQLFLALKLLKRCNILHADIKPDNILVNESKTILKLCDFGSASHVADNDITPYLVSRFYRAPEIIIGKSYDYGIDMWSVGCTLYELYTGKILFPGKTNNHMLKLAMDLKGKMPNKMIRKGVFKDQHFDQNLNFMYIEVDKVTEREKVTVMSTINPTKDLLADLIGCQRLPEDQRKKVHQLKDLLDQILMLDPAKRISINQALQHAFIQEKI
T9 sequence (P11309 whole entry): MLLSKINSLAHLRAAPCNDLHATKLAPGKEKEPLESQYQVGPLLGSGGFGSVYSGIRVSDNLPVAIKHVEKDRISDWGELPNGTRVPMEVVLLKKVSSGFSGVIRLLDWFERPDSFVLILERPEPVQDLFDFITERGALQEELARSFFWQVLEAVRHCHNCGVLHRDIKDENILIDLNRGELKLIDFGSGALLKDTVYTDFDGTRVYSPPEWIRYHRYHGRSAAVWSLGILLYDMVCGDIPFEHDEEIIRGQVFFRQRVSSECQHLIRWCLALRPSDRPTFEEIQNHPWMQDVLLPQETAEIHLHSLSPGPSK
T3 sequence (Q86Y07 whole entry): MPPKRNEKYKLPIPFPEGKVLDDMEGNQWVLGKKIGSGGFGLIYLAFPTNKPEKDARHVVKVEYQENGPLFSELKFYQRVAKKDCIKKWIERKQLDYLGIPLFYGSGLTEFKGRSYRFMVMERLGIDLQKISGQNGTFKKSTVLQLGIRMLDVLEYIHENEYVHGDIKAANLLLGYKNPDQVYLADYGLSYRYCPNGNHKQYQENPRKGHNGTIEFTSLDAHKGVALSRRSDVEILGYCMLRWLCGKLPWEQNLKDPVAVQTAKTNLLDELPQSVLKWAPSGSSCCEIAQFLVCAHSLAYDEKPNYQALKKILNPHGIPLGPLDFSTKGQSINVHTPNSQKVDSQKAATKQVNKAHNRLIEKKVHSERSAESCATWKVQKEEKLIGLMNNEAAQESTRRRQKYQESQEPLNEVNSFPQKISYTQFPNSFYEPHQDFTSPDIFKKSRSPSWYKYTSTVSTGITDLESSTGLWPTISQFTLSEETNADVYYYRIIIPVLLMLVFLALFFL
T12 sequence (Q9UK32 whole entry): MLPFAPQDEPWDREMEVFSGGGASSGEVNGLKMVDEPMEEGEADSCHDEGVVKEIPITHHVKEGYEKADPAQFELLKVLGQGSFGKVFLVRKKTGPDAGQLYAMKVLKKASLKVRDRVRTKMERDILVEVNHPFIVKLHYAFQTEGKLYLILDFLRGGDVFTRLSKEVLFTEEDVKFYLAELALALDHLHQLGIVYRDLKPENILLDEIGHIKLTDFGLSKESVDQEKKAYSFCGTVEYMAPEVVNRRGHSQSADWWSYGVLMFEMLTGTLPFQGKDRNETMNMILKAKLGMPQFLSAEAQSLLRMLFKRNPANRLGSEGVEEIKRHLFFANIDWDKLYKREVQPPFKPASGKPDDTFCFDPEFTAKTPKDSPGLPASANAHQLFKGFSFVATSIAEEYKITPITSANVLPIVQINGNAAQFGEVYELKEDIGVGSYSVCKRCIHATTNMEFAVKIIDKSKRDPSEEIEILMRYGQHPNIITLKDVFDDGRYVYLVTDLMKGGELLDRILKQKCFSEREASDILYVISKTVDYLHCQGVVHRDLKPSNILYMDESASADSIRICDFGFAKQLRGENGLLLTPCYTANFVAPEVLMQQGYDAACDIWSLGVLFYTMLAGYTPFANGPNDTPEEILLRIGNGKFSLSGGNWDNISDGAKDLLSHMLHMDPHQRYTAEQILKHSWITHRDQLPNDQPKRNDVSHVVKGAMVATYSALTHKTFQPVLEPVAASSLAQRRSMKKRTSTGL
T13 sequence (Q2M2I8 whole entry): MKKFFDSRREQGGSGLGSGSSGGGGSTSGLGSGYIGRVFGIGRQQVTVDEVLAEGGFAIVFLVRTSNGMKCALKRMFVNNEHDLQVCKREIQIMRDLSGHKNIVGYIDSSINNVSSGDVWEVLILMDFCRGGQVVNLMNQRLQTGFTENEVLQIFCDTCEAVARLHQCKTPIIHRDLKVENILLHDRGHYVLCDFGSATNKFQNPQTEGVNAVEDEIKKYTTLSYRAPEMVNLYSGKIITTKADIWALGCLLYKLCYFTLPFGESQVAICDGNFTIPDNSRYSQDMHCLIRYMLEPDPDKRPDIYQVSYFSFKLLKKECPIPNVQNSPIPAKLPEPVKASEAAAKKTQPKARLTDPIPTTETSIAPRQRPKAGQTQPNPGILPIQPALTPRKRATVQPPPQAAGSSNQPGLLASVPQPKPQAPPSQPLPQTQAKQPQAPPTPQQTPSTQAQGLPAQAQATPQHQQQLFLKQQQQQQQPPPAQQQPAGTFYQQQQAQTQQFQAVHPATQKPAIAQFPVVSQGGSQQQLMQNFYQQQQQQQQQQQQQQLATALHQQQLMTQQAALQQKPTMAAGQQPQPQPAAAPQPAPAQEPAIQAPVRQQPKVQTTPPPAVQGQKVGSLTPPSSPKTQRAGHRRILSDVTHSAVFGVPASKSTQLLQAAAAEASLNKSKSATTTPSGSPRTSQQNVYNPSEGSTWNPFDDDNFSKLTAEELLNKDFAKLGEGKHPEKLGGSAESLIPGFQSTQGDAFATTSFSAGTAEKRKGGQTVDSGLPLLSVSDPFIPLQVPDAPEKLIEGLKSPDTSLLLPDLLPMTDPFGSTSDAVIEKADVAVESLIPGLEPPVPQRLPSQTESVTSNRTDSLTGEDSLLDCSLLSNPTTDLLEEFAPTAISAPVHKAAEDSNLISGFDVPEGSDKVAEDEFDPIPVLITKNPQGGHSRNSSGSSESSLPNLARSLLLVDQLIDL
T6 sequence (P28482 whole entry): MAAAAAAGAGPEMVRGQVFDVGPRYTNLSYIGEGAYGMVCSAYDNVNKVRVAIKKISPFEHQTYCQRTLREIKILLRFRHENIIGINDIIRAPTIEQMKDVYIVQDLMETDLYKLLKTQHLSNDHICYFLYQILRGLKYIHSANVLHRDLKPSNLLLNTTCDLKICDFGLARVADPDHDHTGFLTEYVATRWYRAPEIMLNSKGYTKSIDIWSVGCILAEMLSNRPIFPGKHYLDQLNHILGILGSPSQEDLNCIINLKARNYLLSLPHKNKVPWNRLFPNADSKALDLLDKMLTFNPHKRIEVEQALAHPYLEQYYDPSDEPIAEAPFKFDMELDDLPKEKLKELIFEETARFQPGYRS
T2 sequence (Q8IU85 whole entry): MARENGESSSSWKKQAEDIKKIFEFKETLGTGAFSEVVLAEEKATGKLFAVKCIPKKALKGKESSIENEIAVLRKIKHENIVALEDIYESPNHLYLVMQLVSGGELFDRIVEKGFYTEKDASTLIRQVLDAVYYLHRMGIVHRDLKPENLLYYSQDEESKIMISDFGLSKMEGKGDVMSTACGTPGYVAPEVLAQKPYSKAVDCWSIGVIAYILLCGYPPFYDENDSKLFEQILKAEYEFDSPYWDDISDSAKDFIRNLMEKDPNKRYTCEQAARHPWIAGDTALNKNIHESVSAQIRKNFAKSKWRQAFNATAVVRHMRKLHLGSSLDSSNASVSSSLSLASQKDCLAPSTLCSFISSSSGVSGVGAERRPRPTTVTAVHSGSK
T10 sequence (Q9Y6E0 whole entry): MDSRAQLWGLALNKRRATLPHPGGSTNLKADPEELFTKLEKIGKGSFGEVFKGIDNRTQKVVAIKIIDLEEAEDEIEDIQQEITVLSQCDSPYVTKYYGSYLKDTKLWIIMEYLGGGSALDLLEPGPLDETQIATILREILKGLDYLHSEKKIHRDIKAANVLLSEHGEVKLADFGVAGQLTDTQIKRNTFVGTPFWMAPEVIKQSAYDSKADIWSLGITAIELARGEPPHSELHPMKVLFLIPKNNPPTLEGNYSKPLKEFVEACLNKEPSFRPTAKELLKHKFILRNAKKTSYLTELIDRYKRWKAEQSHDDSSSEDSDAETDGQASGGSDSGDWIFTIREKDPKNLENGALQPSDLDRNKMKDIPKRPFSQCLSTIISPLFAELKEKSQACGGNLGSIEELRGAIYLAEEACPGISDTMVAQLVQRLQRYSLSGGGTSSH

| SMILES | ΔTm at 10 µM [1] [°C] | ΔTm at 10 µM [2] [°C] | ΔTm at 10 µM [3] [°C] | ΔTm at 10 µM [4] [°C] | ΔTm at 10 µM [5] [°C] | ΔTm at 10 µM [6] [°C] | ΔTm at 10 µM [7] [°C] | ΔTm at 10 µM [8] [°C] | ΔTm at 10 µM [9] [°C] | ΔTm at 10 µM [10] [°C] | ΔTm at 10 µM [11] [°C] | ΔTm at 10 µM [12] [°C] | ΔTm at 10 µM [13] [°C] |
| --- | --- | --- | --- | --- | --- | --- | --- | --- | --- | --- | --- | --- | --- |
| Cc1ccc(Nc2nsnc(Nc3ccc4c(c3)CS(=O)(=O)C4)c2=O)cc1O [Compound 3, 3-[(2,2-Dioxido-1,3-dihydrobenzo[c]thiophen-5-yl)amino]-5-[(3-hydroxy-4-methylphenyl)amino]-4H-1,2,6-thiadiazin-4-one] | 3.2 | 1.4 | 0.1 | 0.1 | 0.1 | 0.1 | 0.6 | -0.2 | 4.1 | -0.3 | -0.3 | 0.9 | 0.6 |
| CNC(=O)c1ccccc1Nc1nsnc(Nc2ccc(N3CCOCC3)cc2)c1=O [Compound 5, N-Methyl-2-({5-[(4-morpholinophenyl)amino]-4-oxo-4H-1,2,6-thiadiazin-3-yl}amino)benzamide] | 1 | -0.9 | -0.3 | -0.1 | 0.5 | -0.3 | 0.1 | 0 | -0.2 | -1.1 | -1.1 | -0.6 | -0.4 |
| CNC(=O)c1ccccc1Nc1nsnc(Nc2cccc(CS(C)(=O)=O)c2)c1=O [Compound 4, N-Methyl-2-([5-({3-[(methylsulfonyl)methyl]phenyl}amino)-4-oxo-4H-1,2,6-thiadiazin-3-yl]-amino}-benzamide] | 0.6 | -1.3 | -0.3 | -0.3 | -0.1 | -0.3 | 0.1 | -0.1 | -0.7 | 0 | -1.2 | -0.3 | -0.4 |
| Cc1ccc(Nc2nsnc(Nc3cccc(C(N)=O)c3)c2=O)cc1O [Compound 1, 3-({5-[(3-Hydroxy-4-methylphenyl)amino]-4-oxo-4H-1,2,6-thiadiazin-3-yl}amino)benzamide] | 1.1 | 0.8 | -0.6 | -0.2 | -0.3 | -0.2 | 0.7 | 0 | 1 | -0.1 | -0.9 | 0.5 | 0.6 |
| Cc1ccc(Nc2nsnc(Nc3ccc(C(N)=O)cc3)c2=O)cc1O [Compound 2, 4-({5-[(3-Hydroxy-4-methylphenyl)amino]-4-oxo-4H-1,2,6-thiadiazin-3-yl}amino)benzamide] | 3.1 | 4.3 | 1.8 | 0.6 | 1 | 1.4 | 0.1 | 0.1 | 3.5 |  | 1.7 | 2.6 | 1.5 |
